Measured values from PubChem BioAssay AID179 (DTP/NCI, 2004).
Where “and” joins values, the source holds several entries; their conditions need not be identical. Equal values may be shown once. Calls of active or inactive are those of the source.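 How the source made its calls: active means compounds giving half or more protection of infected cells from virus-caused growth loss, again on retest; inactive means the rest.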 Where a SMILES comes first, the peptide text is derived from it. [ ]: non-standard residue; d: D form. The star is where a group is joined. NMeAc5c = CNC1(C(=O)O)CCCC1; Cbz = O=C(OCc1ccccc1)*; Boc = CC(C)(C)OC(=O)*; OBn = c1ccc(CO*)cc1; tBu = CC(C)(C)*

Test system: CEM cells HIV-1 protection, formazan growth assay
Experiment: NCI AIDS Antiviral Assay
Conditions: for IC50: measured here: growth of uninfected CEM cells
How it was run: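 Protection of CEM cells against HIV-1 was scored from cell growth (soluble formazan) across five concentrations, with parallel uninfected cells. Lack of protection may reflect toxicity.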

Compound	EC50 [µM]	IC50	outcome
Cc1ccc(SCC(OCn2cnc3c(N)ncnc32)[C@H](C)F)cc1 (stereo partly specified)	> 200	191 µM	–
O=c1cccc2n1CC1CNCC2C1 (stereo unspecified)	> 200	> 200 µM	–
O=C(/C=C/c1ccc(O)c(F)c1)CC(=O)/C=C/c1ccc(O)c(F)c1	> 200	12.6 µM	–
CCC1(CC)COP(=O)(Oc2ccccc2)OC1	> 200	> 200 µM	–
C1CN2CCO[SiH](O1)OCC2	–	–	inactive
COc1cc2c(c(OC)c1)C1(CC(CC#N)C2)SCCS1 (stereo unspecified)	–	–	inactive
O=C1NC(=O)c2ncccc21	> 200	> 200 µM	–
CC(OC(C)(C)C)C(NC(=O)C(CCCCNC(=O)OC(C)(C)C)NC(=O)C(Cc1c[nH]c2ccccc12)NC(=O)OCc1ccccc1)C(=O)NC(Cc1ccccc1)C(=O)N(C)C1(C(=O)NC(Cc2ccccc2)C(=O)OCc2ccccc2)CCCC1 (stereo unspecified) (Cbz-WK(Boc)T(tBu)F[NMeAc5c]F-OBn; configuration not given here)	> 50.1	38.9 µM	–
O=c1c2ccccc2nc2n1-c1ccccc1SC2	> 97.7	> 97.7 µM	–
CCOc1csc([C@H]2CCC3[C@@H]4CC=C5C[C@@H](O)CC[C@]5(C)C4CC[C@@]32C)n1 (stereo partly specified)	> 3.39	> 3.39 µM	–
O=C1C2c3[nH]c4ccccc4c3[C@@H]3CCCCC3C2C(=O)N1c1ccccc1 (stereo partly specified)	–	–	inactive
C=C1CC(C#N)(C#N)[C@H]2C3CCCC3C[C@@H]12 (stereo partly specified) (tested in a mixture with another compound)	> 200	33.1 µM	–
CCCOC(=O)C(F)C(Br)C(=O)OCCC (stereo unspecified)	> 200	3.16 µM	–
O=C(CC1(O)C(=O)Nc2ccc([N+](=O)[O-])cc21)c1ccncc1 (stereo unspecified)	> 20.9	> 20.9 µM	–
Cc1nc(Cc2n[nH]c(C)n2)n[nH]1	> 200	> 200 µM	–
C=CC(C)NC(=S)NNC(=S)NC (stereo unspecified)	> 200	89.1 µM	–
C=CCOC(=O)NC1C(OC(C)[C@@H](NC(=O)OCc2ccccc2)C(=O)OC(C)(C)C)OC(COC(C)=O)C(OC(C)=O)C1OC(C)=O (stereo partly specified)	> 200	28.8 µM	–
NC(N)=NS(=O)(=O)c1ccc(NC(=O)c2cccn3c(=O)c4ccccc4nc23)cc1	–	–	inactive
O=S(=O)(C1=CC(S(=O)(=O)c2ccccc2)COC1)c1ccccc1 (stereo unspecified)	–	–	inactive
CC(=O)OCC(=O)[C@@]1(O)CC[C@H]2[C@@H]3C[C@H](C)C4=CC(=O)C=C[C@]4(C)[C@@]3(Br)[C@@H](O)C[C@@]21C	–	–	inactive
CC1=CC(=O)/C(=C/n2c(=S)[nH]c3ccccc32)C(=O)O1	> 200	> 200 µM	–
Nc1nc([O-])c2c(n1)[n+](C1OC(CO)C(O)C1O)cn2CCO (stereo unspecified)	> 759	> 759 µM	–
N=C(c1ccccc1)N(O)C1CCCCC1	–	–	inactive
Cc1ccc(N=Nc2c(C)nn(-c3ccccc3)c2C)c(Br)c1	–	–	inactive
CCOC(=O)c1ccc(N=C2SC(=S)N(c3ccc(F)cc3)C2=Nc2ccc(C(=O)OCC)cc2)cc1	> 20	6.76 µM	–
C=CC1OC(CCCOC(=O)C(C)(C)C)O[C@@H]1CC (stereo partly specified)	> 200	> 200 µM	–
CN[C@@H]1[C@H](O)[C@H](NC)[C@H]2O[C@@]3(O)C(=O)C[C@@H](C)O[C@H]3O[C@@H]2[C@H]1O	> 200	> 200 µM	–

Compound	EC50 [µM]	IC50	outcome
N#Cc1cccc(/C=C2\CCc3ccccc3C2=O)c1	> 28.2	20.9 µM	–
COC(=O)CCC(=O)Nc1cc(C)ccc1C	> 1070	> 1070 µM	–
CO[C@@]12[C@@H]3N[C@@H]3CN1C1=C(C(=O)C(N3CCCC3)=C(C)C1=O)[C@@H]2COC(N)=O	> 200	0.631 µM	–
O=C(N=C1N(c2ccccc2)C(=O)C(=O)N1c1ccccc1)c1ccccc1	> 200	5.62 µM	–
COc1ccc(C2S/C(=C\c3cccc([N+](=O)[O-])c3)C(=O)N2NC(=O)Cc2ccccc2)cc1 (stereo unspecified)	> 39.8	> 39.8 µM	–
CC12C=CC(C)(C3C(=O)C4C(C(=O)C31)C1(C)C=CC4(C)S1=O)S2=O (stereo unspecified)	21.9	60.3 µM	–
CCC[CH2][Sn]1([CH2]CCC)[O]C(=O)c2cccnc2[S]1	> 33.9	0.631 µM	–
CC(=O)Oc1ccc(C2(c3ccc(OC(C)=O)cc3)C(=O)Nc3ccccc32)cc1	> 200	35.5 µM and 36.3 µM	–
CCc1c(CN)c(CC)c(CNC2=NCCN2)c(CC)c1CNC1=NCCN1	> 200	> 200 µM	–
C#CCOC(=O)c1ccc(OC(C)=O)cc1	> 200	191 µM	–
Cc1ccc(N(C(=O)CC(=O)N2N=C(c3ccccc3)C(N=Nc3ccc([N+](=O)[O-])cc3)C2=O)C(=O)c2ccc(Cl)cc2)cc1 (stereo unspecified)	> 11.5	9.12 µM	–
O=C(Nc1cc(C(=O)Nc2cccc(S(=O)(=O)O)c2)cc(C(=O)Nc2cccc(S(=O)(=O)O)c2)c1)c1cccc(C(=O)Nc2cc(C(=O)Nc3cccc(S(=O)(=O)O)c3)cc(C(=O)Nc3cccc(S(=O)(=O)O)c3)c2)c1	97.7	> 100 µM	–
Cc1cc2c(O)c(c1)COCc1cc(C)cc(c1O)COCc1cc(C)cc(c1O)COC2	> 200	138 µM	–
CCOC(=O)N(c1ccccc1)c1cc(=O)n2ccccc2n1	> 200	> 200 µM	–
COc1ccc(N2C(=O)[C@H]3CC(C)c4c([nH]c5ccccc45)[C@H]3C2=O)cc1 (stereo partly specified)	> 41.7	0.871 µM	–
S=P1(Oc2ccccc2)NNP2(=NP(N3CC3)(N3CC3)=NP(N3CC3)(N3CC3)=N2)NN1 (stereo unspecified)	> 50.1	5.13 µM	–
O=C(COC(=O)c1cccc2c(=O)c3ccccc3[nH]c12)Nc1ccc(C(=O)O)cc1	–	–	inactive
CCCN=C1NC(C)=CSC(Nc2ccccc2)=C1C#N	> 200	> 200 µM	–
O=[N+]([O-])c1cc(F)ccc1Sc1ccccc1	> 200	95.5 µM	–
O=C(O)c1ccc([N+](=O)[O-])cc1S(=O)(=O)O	> 200	> 200 µM	–
COc1cc2c(cc1Oc1c(O)c(OC)cc3c1C(C)N(C)CC3)C(C)N(C)CC2 (stereo unspecified)	> 200	> 200 µM	–
NCCCNCCS	> 589	30.2 µM	–
CC1(CO)C(O)CCC2(C)C1C(O)CC1CC3CC12CCC3(O)CO (stereo unspecified)	> 708	138 µM	–
Cc1cn2c(nc1=O)OC1C(O)C(CCl)OC12 (stereo unspecified)	> 200	> 200 µM	–
CC(C)CC(NC(=O)C(Cc1ccccc1)NC(=O)C(Cc1ccccc1)NC(=O)OC(C)(C)C)C(=O)OCc1ccccc1 (stereo not drawn) (Boc-Phe-Phe-Leu-OBn; configuration not given here)	> 200	> 200 µM	–
Cc1cn(COCCN2C(=O)c3ccccc3C2=O)c(=O)[nH]c1=O	> 200	> 200 µM	–
Cc1cc(S(=O)(=O)Nc2nc3ccccc3n2-c2ccccc2)c(S)cc1Cl	> 200	162 µM	–

Compound	EC50 [µM]	IC50	outcome
O=C1CCc2cc3c(cc21)CC1(Cc2ccccc2C1)C3	> 200	4.57 µM	–
O=C1OCCOCCOCCOCCOCCOCCOC(=O)c2cccc1n2	> 107	56.2 µM	–
COCCOCOC(C)(C)[C@H](CCOC(C)=O)O[Si](c1ccccc1)(c1ccccc1)C(C)(C)C	–	–	inactive
NC(=O)C(=Cn1c(=S)[nH]c2ccccc21)C(N)=O	> 200	> 200 µM	–
CC(=O)Nc1ccc(C2CC(c3ccc([N+](=O)[O-])cc3)=Nc3ccccc3S2=O)cc1 (stereo unspecified)	> 3.31	> 3.31 µM	–
Nc1ccnc2c1ncn2[C@H]1C[C@H](O)[C@@H](CO)O1	> 200	> 200 µM	–
CC(=O)OCC1OC(OC(C)=O)C(NC(=O)CI)C(OC(C)=O)C1OC(C)=O (stereo unspecified)	> 490	2.57 µM	–
C/C=C(/CCO)[Si](C)(C)C	–	–	inactive
O=C1C[C@H](Sc2ccccc2)C2(OCCO2)[C@@H](Sc2ccccc2)C1	> 2	1.05 µM	–
CC1=CC(=O)/C(=C/N2C(=O)CNC2=S)C(=O)O1	> 200	> 200 µM	–
CCOC(=O)/C(=C\c1ccc(-c2ccccc2)cc1)C(C)=O	> 45.7	> 45.7 µM	–
COc1ccc2cc1Oc1ccc(cc1)CC1c3cc(c(OC)cc3CCN1C)Oc1c3c(cc4c1C(C2)N(C)CC4)OCO3 (stereo unspecified)	–	–	inactive
O=C(/C=C/c1ccc(O)c(O)c1)OCc1ccccc1	> 12	11.2 µM	–
CCCCN[C@H]1C2C3CC4C5CC(C42)C1(C)C53 (stereo partly specified)	> 933	380 µM	–
COC(=O)[C@H]1C(=CBr)[C@@H]1C(=O)OC.[C-]#[O+].[C-]#[O+].[C-]#[O+].[C-]#[O+].[Fe]	> 200	> 200 µM	–
OCC1OC(n2cnc3c(Cl)ncnc32)C(O)C1O (stereo unspecified)	–	–	inactive
Oc1ccc(/C=C/c2cc(O)cc3c2[C@@H](c2cc(O)cc(O)c2)C(c2ccc(O)cc2)O3)cc1 (stereo partly specified)	> 31.6	16.6 µM	–
CCOc1ccc(NC(=O)C(=O)NO)cc1	> 302	178 µM	–
Cn1cc(N)cc1C(=O)Nc1ccc(S(=O)(=O)O)c2cc(S(=O)(=O)O)ccc12	> 490	> 490 µM	–
COC(=O)c1c(C(=O)OC)c(-c2ccccc2)n(-c2ccccc2)c(=O)c1-c1ccccc1	–	–	inactive
C=C[C@@](C)(/C=C/c1ccc(O)cc1)CCC=C(C)C	> 200	25.1 µM	–
O=C(OCc1ccccc1)N1N=NC2C3CC(OCc4ccccc4)(OCc4ccccc4)C(O3)C21 (stereo unspecified)	> 10.7	> 10.7 µM	–
O=C(Nc1ccc(Cl)cc1Cl)C1C(=O)N(c2ccc(Cl)cc2Cl)C(=O)/C1=N\Nc1ccc([N+](=O)[O-])cc1[N+](=O)[O-] (stereo unspecified)	> 1.66	> 1.66 µM	–
CN(Cc1cnc2nc(N)nc(N)c2n1)c1ccc(C(=O)N[C@@H](CCC(=O)O)C(=O)O)cc1	> 1.51	0.00372 µM	–
Cc1nn(C(=O)c2ccc(Cl)cc2)c2c1C(c1ccccc1[N+](=O)[O-])SC(N)=N2 (stereo unspecified)	> 200	105 µM	–
Cc1cccc2c1C(=O)C1(Cc3ccccc3C1=O)C2 (stereo unspecified)	> 200	> 200 µM	–
